Columns and labels:
[1] = clinical classification; cited from earlier work
[2] = system: human primary liver cells; details: 100 μM drug; 3D model II-2 (human primary liver cells, 5000 cells per micropore) vs 2D comparison model II; FIG. 15
Experimental: (§1) 3. […] In a long-time administration test of the 3D human liver organ model, 100 μM is administered once, and if repeated administration is required, a drug is changed in the middle and the concentration is maintained. Each 3D human liver organ model and each 2D liver organ model need to be provided with a blank group, a negative control group and a positive control group, and each group is provided with six replicate wells.
(§2) 4. […] After drug incubation is completed, the culture medium with the drugs is removed, 100 μL of a mixed solution of a cell titer blue stock solution and a complete culture medium in a ratio of 1:5 is added, incubation is conducted for 3 h at 37° C., and a detection wavelength is […]. For example, the Cell titer 3D glo is added to evaluate the ATP of the 3D liver model, so that the action effect of the drugs is evaluated. After drug incubation is completed, the culture medium with the drugs is removed, 100 μL of a mixed solution of a Cell titer 3D glo stock solution and a complete culture medium in a ratio of 1:1 is added, incubation is conducted for 0.5 h at normal temperature, and detection is conducted in a Luminescence mode. For example, a high-content imaging technology is used for imaging characterization of the number of living and dead cells, and characterization of cell mitochondrial activity and membrane potential to evaluate hepatotoxicity drugs. The embodiment is applicable to, but not limited to, the above characterization method.

[3] = system: human liver cancer cell lines hepG2; assay type: cell-based; details: 100 μM drug; 3D model I-1 (hepG2, 2000 cells per micropore) vs 2D comparison model I; FIG. 8
Experimental: as §1, §2

Structure (SMILES)	clinically confirmed hepatotoxicity class [1]	hepatotoxicity inhibition on the 3D liver organ model compared with the 2D liver organ comparison model [2]	hepatotoxicity inhibition on the 3D liver organ model compared with the 2D liver organ comparison model [3]
COc1ccccc1Oc1c(NS(=O)(=O)c2ccc(C(C)(C)C)cc2)nc(-c2ncccn2)nc1OCCO [compound 5, bosentan]	low-hepatotoxicity	stronger hepatotoxicity inhibition	stronger hepatotoxicity inhibition
CN(CCOc1ccc(CC2SC(=O)NC2=O)cc1)c1ccccn1 (stereo not drawn) [compound 6, rosiglitazone]	low-hepatotoxicity	stronger hepatotoxicity inhibition	stronger hepatotoxicity inhibition
Cc1ccc(-c2cc(C(F)(F)F)nn2-c2ccc(S(N)(=O)=O)cc2)cc1 [compound 8, celecoxib]	low-hepatotoxicity	–	stronger hepatotoxicity inhibition
CN(C)[C@@H]1C(=O)C(C(N)=O)=C(O)[C@@]2(O)C(=O)C3=C(O)c4c(O)cccc4[C@@](C)(O)[C@H]3C[C@@H]12 [compound 9, tetracycline]	low-hepatotoxicity	stronger hepatotoxicity inhibition	–
O=C(OCC(O)CO)c1ccccc1Nc1ccnc2cc(Cl)ccc12 (stereo not drawn) [compound 10, glafenine]	low-hepatotoxicity	stronger hepatotoxicity inhibition	–
CN(C)CCC=C1c2ccccc2CCc2ccccc21 [compound 12, amitriptyline]	low-hepatotoxicity	–	stronger hepatotoxicity inhibition
CC(=O)Nc1ccc(O)cc1 [compound 15, paracetamol]	–	stronger hepatotoxicity inhibition	–

Source: patent US20220403339A1, “3D HUMAN LIVER ORGAN MODEL CONSTRUCTING METHOD, 3D HUMAN LIVER ORGAN MODEL AND USE THEREOF” (priority 2020, published 2022)
